Results on 23 compounds are retold here after patent US20070155764A1, “NOVEL SUBSTITUTED PYRIMIDINYLOXY UREAS USEFUL AS INHIBITORS OF PROTEIN KINASES” (KALYPSYS, INC., priority 2005, published 2007).

pIC50: −log10 of the molar value. Some results are limits rather than exact numbers.

Holding throughout (assay type): biochemical
Test [1] deals with T1, human B-Raf protein kinase (Homo sapiens, UniProt P15056).
T1 construct: GST (N); purchased Upstate Inc. 14-530 (B-Raf); 14-420 (Mek1)
As to the kind of experiment: In vitro B-Raf/Mek1 composite kinase assay. The following applies: recombinant GST-tagged human B-Raf (Δ1-415) with inactive Mek1, 2 μM ATP. Summed up: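 Luminescent ATP-depletion assay using recombinant N-terminal GST-tagged human B-Raf (Δ1-415, 1 ng/well) in MOPS pH 7.2 buffer with 10 mM MgCl2. Compounds were preincubated 15 min at about 22° C, then the reaction ran 2 h before PKLight readout. Efficacy is expressed as percentage of positive-control (Bay 43-9006) activity.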

For a further test, the target named is T2, VEGFR2 kinase (Homo sapiens, UniProt P35968).
T2 construct: purchased Invitrogen Inc PV3660
As to the kind of experiment: In vitro VEGFR2 kinase assay. The following applies: ADP Quest assay, poly Glu:Tyr substrate, 60 μM ATP. Summed up: (§1)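 Compound was preincubated 10 min at ~22 °C with 20 ng VEGFR2 or 25 ng PDGFRβ, then poly Glu:Tyr (4:1) substrate (0.25 μg) with 60 μM ATP (in added buffer) was reacted 2 h at 30 °C. ADP Quest resorufin fluorescence was read (ex 530/em 580) after 30 min. Efficacy is expressed as percent of positive-control (Bay 43-9006) activity, with DMSO as negative control.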

In another test the target is T3, PDGFRβ kinase (Homo sapiens, UniProt P09619).
T3 construct: purchased Invitrogen Inc. P3082
The test is described as follows: In vitro PDGFRβ kinase assay. The following applies: ADP Quest assay, poly Glu:Tyr substrate, 60 μM ATP. Summed up: as §1

T1 sequence (P15056 416-766): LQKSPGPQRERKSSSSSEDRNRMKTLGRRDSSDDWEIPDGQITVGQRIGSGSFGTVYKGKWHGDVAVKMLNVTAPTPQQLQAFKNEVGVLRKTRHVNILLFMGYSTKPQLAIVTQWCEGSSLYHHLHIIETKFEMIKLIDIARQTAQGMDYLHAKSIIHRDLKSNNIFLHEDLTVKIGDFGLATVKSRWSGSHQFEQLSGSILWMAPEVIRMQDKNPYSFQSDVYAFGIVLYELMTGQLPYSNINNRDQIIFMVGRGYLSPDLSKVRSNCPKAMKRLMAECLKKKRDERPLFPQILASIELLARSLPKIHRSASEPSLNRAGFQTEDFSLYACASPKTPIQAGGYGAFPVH
T3 sequence (P09619 33-1106): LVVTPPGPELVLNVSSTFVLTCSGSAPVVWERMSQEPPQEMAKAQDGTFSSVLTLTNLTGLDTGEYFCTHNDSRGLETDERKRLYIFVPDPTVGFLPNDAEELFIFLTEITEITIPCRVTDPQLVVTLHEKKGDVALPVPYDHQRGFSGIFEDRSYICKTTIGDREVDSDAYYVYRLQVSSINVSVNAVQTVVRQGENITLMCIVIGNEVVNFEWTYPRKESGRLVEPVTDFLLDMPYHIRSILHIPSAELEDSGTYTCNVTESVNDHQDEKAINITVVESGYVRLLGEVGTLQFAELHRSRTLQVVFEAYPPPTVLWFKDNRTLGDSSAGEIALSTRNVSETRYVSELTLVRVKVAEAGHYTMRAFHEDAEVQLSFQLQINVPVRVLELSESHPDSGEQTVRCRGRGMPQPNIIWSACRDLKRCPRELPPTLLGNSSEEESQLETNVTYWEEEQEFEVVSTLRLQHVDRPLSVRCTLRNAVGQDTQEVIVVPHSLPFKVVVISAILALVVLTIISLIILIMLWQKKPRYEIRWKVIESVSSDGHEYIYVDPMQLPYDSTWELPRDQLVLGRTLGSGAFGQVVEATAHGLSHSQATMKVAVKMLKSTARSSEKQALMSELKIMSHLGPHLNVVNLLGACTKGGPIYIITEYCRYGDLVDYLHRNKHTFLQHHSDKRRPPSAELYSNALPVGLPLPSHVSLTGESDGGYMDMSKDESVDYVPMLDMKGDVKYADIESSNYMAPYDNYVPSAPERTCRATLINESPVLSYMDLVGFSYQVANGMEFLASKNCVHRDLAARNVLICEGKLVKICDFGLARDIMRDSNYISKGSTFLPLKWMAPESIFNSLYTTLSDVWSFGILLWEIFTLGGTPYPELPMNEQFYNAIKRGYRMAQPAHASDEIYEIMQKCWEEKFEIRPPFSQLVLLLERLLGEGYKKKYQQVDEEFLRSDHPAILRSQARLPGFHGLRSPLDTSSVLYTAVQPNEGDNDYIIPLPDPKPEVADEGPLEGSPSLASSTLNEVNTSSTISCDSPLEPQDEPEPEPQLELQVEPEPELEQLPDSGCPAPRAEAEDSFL
T2 sequence (P35968 20-1356): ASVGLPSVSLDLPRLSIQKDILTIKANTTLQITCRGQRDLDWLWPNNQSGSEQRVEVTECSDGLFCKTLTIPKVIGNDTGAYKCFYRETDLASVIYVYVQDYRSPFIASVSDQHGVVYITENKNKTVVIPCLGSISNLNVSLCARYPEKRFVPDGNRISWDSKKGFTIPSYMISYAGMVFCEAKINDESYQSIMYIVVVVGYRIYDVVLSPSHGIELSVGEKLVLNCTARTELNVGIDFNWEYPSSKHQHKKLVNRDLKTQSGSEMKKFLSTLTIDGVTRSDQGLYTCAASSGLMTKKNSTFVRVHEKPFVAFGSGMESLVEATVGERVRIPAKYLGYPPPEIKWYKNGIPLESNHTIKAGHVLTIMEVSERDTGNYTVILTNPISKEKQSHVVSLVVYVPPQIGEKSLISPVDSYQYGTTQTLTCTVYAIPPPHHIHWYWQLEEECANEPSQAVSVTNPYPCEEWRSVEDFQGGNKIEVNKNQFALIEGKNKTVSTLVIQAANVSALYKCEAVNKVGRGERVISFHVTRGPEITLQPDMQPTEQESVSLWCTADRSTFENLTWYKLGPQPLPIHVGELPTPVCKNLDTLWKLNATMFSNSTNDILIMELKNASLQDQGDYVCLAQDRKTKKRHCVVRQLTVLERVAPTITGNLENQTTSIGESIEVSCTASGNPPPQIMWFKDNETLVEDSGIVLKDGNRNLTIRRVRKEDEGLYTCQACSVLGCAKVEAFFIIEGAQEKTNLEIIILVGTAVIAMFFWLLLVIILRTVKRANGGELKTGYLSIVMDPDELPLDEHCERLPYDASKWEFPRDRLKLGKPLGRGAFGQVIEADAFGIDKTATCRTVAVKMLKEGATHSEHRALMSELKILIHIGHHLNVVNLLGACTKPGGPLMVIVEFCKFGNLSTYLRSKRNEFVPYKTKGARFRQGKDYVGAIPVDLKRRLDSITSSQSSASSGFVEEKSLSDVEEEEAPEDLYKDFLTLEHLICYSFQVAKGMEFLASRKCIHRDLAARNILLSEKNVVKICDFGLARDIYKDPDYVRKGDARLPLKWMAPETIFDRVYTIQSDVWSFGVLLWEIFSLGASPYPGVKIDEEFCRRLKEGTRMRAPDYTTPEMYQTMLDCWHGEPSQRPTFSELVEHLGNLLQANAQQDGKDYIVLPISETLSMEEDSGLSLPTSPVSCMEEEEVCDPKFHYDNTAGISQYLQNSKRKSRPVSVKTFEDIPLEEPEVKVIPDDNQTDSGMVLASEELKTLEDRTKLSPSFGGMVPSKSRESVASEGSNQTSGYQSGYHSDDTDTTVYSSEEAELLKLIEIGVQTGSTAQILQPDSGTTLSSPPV

With `COCCOc1ccc(NC(=O)Nc2ccc(Oc3cc(-c4cnn(C)c4)ncn3)cc2)cc1C(F)(F)F` [Example 52, 1-(4-(2-Methoxyethoxy)-3-(trifluoromethyl)phenyl)-3-(4-(6-(1-methyl-1H-pyrazol-4-yl)pyrimidin-4-yloxy)phenyl)urea], the pIC50 (in test [1]; against VEGFR2 kinase; at PDGFRβ kinase) was at least 5.00 throughout.

For the compound `COCCOc1ccc(NC(=O)Nc2ccc(Oc3cc(-c4nnco4)ncn3)cc2)cc1C(F)(F)F` [Example 53, 1-(4-(6-(1,3,4-Oxadiazol-2-yl)pyrimidin-4-yloxy)phenyl)-3-(4-(2-methoxyethoxy)-3-(trifluoromethyl)phenyl)urea], the negative logarithm of the IC50 (pIC50) in test [1] was below 5.00; against VEGFR2 kinase it was at least 5.00; against PDGFRβ kinase it was at least 5.00.

For the compound `COC(=O)Cn1cc(-c2cc(Oc3cccc(NC(=O)Nc4ccc(Cl)c(C(F)(F)F)c4)c3)ncn2)cn1` [Example 54, Methyl 2-(4-(6-(3-(3-(4-chloro-3-(trifluoromethyl)phenyl)ureido)phenoxy)pyrimidin-4-yl)-1H-pyrazol-1-yl)acetate], the negative logarithm of the IC50 (pIC50) (in test [1]; on VEGFR2 kinase; against PDGFRβ kinase) was at least 5.00 each time.

In the case of `CNC(=O)Cn1cc(-c2cc(Oc3cccc(NC(=O)Nc4ccc(Cl)c(C(F)(F)F)c4)c3)ncn2)cn1` [Example 56, 2-(4-(6-(3-(3-(4-Chloro-3-(trifluoromethyl)phenyl)ureido)phenoxy)pyrimidin-4-yl)-1H-pyrazol-1-yl)-N-methylacetamide], the pIC50 (in test [1]; against VEGFR2 kinase; on PDGFRβ kinase) was at least 5.00 in each case.

With `Cn1cc(-c2cc(Oc3cc(NC(=O)Nc4ccc(Cl)c(C(F)(F)F)c4)c(F)cc3F)ncn2)cn1` [Example 57, 1-(4-Chloro-3-(trifluoromethyl)phenyl)-3-(2,4-difluoro-5-(6-(1-methyl-1H-pyrazol-4-yl)pyrimidin-4-yloxy)phenyl)urea], the negative-log IC50 (pIC50) (in test [1]; against VEGFR2 kinase; at PDGFRβ kinase) was at least 5.00 each time.

As to `COC(=O)Cn1ccc(-c2cc(Oc3cccc(NC(=O)Nc4ccc(Cl)c(C(F)(F)F)c4)c3)ncn2)n1` [Example 58, Methyl 2-(3-(6-(3-(3-(4-chloro-3-(trifluoromethyl)phenyl)ureido)phenoxy)pyrimidin-4-yl)-1H-pyrazol-1-yl)acetate], the pIC50 (in test [1]; against VEGFR2 kinase; against PDGFRβ kinase) was at least 5.00 each time.

Regarding `NC(=O)Cn1ccc(-c2cc(Oc3cccc(NC(=O)Nc4ccc(Cl)c(C(F)(F)F)c4)c3)ncn2)n1` [Example 59, 2-(3-(6-(3-(3-(4-Chloro-3-(trifluoromethyl)phenyl)ureido)phenoxy)pyrimidin-4-yl)-1H-pyrazol-1-yl)acetamide], the negative-log IC50 (pIC50) (in test [1]; against VEGFR2 kinase; against PDGFRβ kinase) was at least 5.00 each time.

Turning to `CNC(=O)Cn1ccc(-c2cc(Oc3cccc(NC(=O)Nc4ccc(Cl)c(C(F)(F)F)c4)c3)ncn2)n1` [Example 60, 2-(3-(6-(3-(3-(4-Chloro-3-(trifluoromethyl)phenyl)ureido)phenoxy)pyrimidin-4-yl)-1H-pyrazol-1-yl)-N-methylacetamide], the pIC50 (in test [1]; on VEGFR2 kinase; against PDGFRβ kinase) was at least 5.00 each time.

`Cn1ccc(-c2cc(Oc3cccc(NC(=O)Nc4ccc(Cl)c(C(F)(F)F)c4)c3)ncn2)n1` [Example 61, 1-(4-Chloro-3-(trifluoromethyl)phenyl)-3-(3-(6-(1-methyl-1H-pyrazol-3-yl)pyrimidin-4-yloxy)phenyl)urea]: the pIC50 in test [1] was at least 5.00; on VEGFR2 kinase, below 5.00; against PDGFRβ kinase, below 5.00.

Regarding `Cn1nccc1-c1cc(Oc2cccc(NC(=O)Nc3ccc(Cl)c(C(F)(F)F)c3)c2)ncn1` [Example 62, 1-(4-Chloro-3-(trifluoromethyl)phenyl)-3-(3-(6-(1-methyl-1H-pyrazol-5-yl)pyrimidin-4-yloxy)phenyl)urea], the pIC50 (in test [1]; against VEGFR2 kinase; at PDGFRβ kinase) was at least 5.00 each time.

Turning to `O=C(Nc1cccc(Oc2cc(-c3ccn(CCO)n3)ncn2)c1)Nc1ccc(Cl)c(C(F)(F)F)c1` [Example 63, 1-(4-Chloro-3-(trifluoromethyl)phenyl)-3-(3-(6-(1-(2-hydroxyethyl)-1H-pyrazol-3-yl)pyrimidin-4-yloxy)phenyl)urea], the pIC50 in test [1] is at least 5.00; on VEGFR2 kinase, below 5.00; on PDGFRβ kinase, below 5.00.

On to `N#CCn1cc(-c2cc(Oc3cccc(NC(=O)Nc4ccc(Cl)c(C(F)(F)F)c4)c3)ncn2)cn1` [Example 64, 1-(4-Chloro-3-(trifluoromethyl)phenyl)-3-(3-(6-(1-(cyanomethyl)-1H-pyrazol-4-yl)pyrimidin-4-yloxy)phenyl)urea], for which the pIC50 (in test [1]; against VEGFR2 kinase; at PDGFRβ kinase) was at least 5.00 in each case.

On to `Cn1cc(-c2nccc(Oc3cc(NC(=O)Nc4ccc(Cl)c(C(F)(F)F)c4)c(F)cc3F)n2)cn1` [Example 67, 1-(4-Chloro-3-(trifluoromethyl)phenyl)-3-(2,4-difluoro-5-(2-(1-methyl-1H-pyrazol-4-yl)pyrimidin-4-yloxy)phenyl)urea], for which the negative-log IC50 (pIC50) (in test [1]; against VEGFR2 kinase; on PDGFRβ kinase) was at least 5.00 in each case.

For the compound `CC(C)n1cc(-c2cc(Oc3cccc(NC(=O)Nc4ccc(Cl)c(C(F)(F)F)c4)c3)ncn2)cn1` [Example 68, 1-(4-Chloro-3-(trifluoromethyl)phenyl)-3-(3-(6-(1-isopropyl-1H-pyrazol-4-yl)pyrimidin-4-yloxy)phenyl)urea], the negative-log IC50 (pIC50) is at least 5.00 in test [1], below 5.00 on VEGFR2 kinase and at least 5.00 against PDGFRβ kinase.

On to `Cc1nn(C)c(C)c1-c1cc(Oc2cccc(NC(=O)Nc3ccc(Cl)c(C(F)(F)F)c3)c2)ncn1` [Example 69, 1-(4-Chloro-3-(trifluoromethyl)phenyl)-3-(3-(6-(1,3,5-trimethyl-1H-pyrazol-4-yl)pyrimidin-4-yloxy)phenyl)urea], for which the pIC50 is at least 5.00 in test [1], below 5.00 on VEGFR2 kinase and below 5.00 against PDGFRβ kinase.

Take `Cc1nn(C)c(C)c1-c1cc(Oc2ccc(NC(=O)Nc3ccc(Cl)c(C(F)(F)F)c3)cc2)ncn1` [Example 70, 1-(4-Chloro-3-(trifluoromethyl)phenyl)-3-(4-(6-(1,3,5-trimethyl-1H-pyrazol-4-yl)pyrimidin-4-yloxy)phenyl)urea]: the pIC50 is below 5.00 in test [1], below 5.00 against VEGFR2 kinase and at least 5.00 at PDGFRβ kinase.

As for `Cn1cc(-c2nccc(Oc3cccc(NC(=O)Nc4ccc(Cl)c(C(F)(F)F)c4)c3)n2)cn1` [Example 71, 1-(4-Chloro-3-(trifluoromethyl)phenyl)-3-(3-(2-(1-methyl-1H-pyrazol-4-yl)pyrimidin-4-yloxy)phenyl)urea], the negative-log IC50 (pIC50) (in test [1]; against VEGFR2 kinase; against PDGFRβ kinase) was at least 5.00 throughout.

For the compound `Cn1cc(-c2nccc(Nc3ccc(NC(=O)Nc4ccc(Cl)c(C(F)(F)F)c4)cc3)n2)cn1` [Example 72, 1-(4-Chloro-3-trifluoromethyl-phenyl)-3-{4-[2-(1-methyl-1H-pyrazol-4-yl)-pyrimidin-4-ylamino]-phenyl}-urea], the negative logarithm of the IC50 (pIC50) (in test [1]; against VEGFR2 kinase; at PDGFRβ kinase) was at least 5.00 each time.

On to `O=C(Nc1ccc(Oc2cc(-c3nc(C(F)(F)F)c[nH]3)ncn2)cc1)Nc1ccc(Cl)c(C(F)(F)F)c1` [Example 73, 1-(4-Chloro-3-(trifluoromethyl)phenyl)-3-(4-(6-(4-(trifluoromethyl)-1H-imidazol-2-yl)pyrimidin-4-yloxy)phenyl)urea], for which the figures for the negative logarithm of the IC50 (pIC50) (in test [1]; against VEGFR2 kinase; on PDGFRβ kinase) were at least 5.00, below 5.00 and at least 5.00, respectively.

Turning to `O=C(Nc1cccc(Oc2cc(-c3nc(C(F)(F)F)c[nH]3)ncn2)c1)Nc1ccc(Cl)c(C(F)(F)F)c1` [Example 74, 1-(4-Chloro-3-(trifluoromethyl)phenyl)-3-(3-(6-(4-(trifluoromethyl)-1H-imidazol-2-yl)pyrimidin-4-yloxy)phenyl)urea], the pIC50 was at least 5.00 in test [1], below 5.00 against VEGFR2 kinase and at least 5.00 on PDGFRβ kinase.

For `COCCOc1ccc(NC(=O)Nc2cc(Oc3ccnc(-c4cnn(C)c4)n3)c(F)cc2F)cc1C(F)(F)F` [Example 75, 1-(2,4-Difluoro-5-(2-(1-methyl-1H-pyrazol-4-yl)pyrimidin-4-yloxy)phenyl)-3-(4-(2-methoxyethoxy)-3-(trifluoromethyl)phenyl)urea], the pIC50 (in test [1]; at VEGFR2 kinase; on PDGFRβ kinase) was at least 5.00 in each case.

With `O=C(Nc1ccc(Oc2cc(-c3cnn(CCN4CCOCC4)c3)ncn2)cc1)Nc1ccc(Cl)c(C(F)(F)F)c1` [Example 76, 1-(4-Chloro-3-(trifluoromethyl)phenyl)-3-(4-(6-(1-(2-morpholinoethyl)-1H-pyrazol-4-yl)pyrimidin-4-yloxy)phenyl)urea], the negative logarithm of the IC50 (pIC50) (in test [1]; on VEGFR2 kinase; at PDGFRβ kinase) was at least 5.00 each time.

Regarding `O=C(Nc1cccc(Oc2cc(-c3cnn(CCN4CCOCC4)c3)ncn2)c1)Nc1ccc(Cl)c(C(F)(F)F)c1` [Example 77, 1-(4-Chloro-3-(trifluoromethyl)phenyl)-3-(3-(6-(1-(2-morpholinoethyl)-1H-pyrazol-4-yl)pyrimidin-4-yloxy)phenyl)urea], the pIC50 (in test [1]; at VEGFR2 kinase; against PDGFRβ kinase) was at least 5.00 throughout.

As a reminder, the pIC50 is −log10 of the IC50, conventionally taken in molar units.
